From US5326902A, “Oxyalkyne compounds, pharmaceutical compositions containing them and processes for preparing such compounds and compositions” (Gruenenthal GmbH, priority 1992, dated 1994)

Key:
[1] = target: T1, 5-lipoxygenase (Rattus norvegicus, UniProt P12527); test: Inhibition of 5-lipoxygenase in RBL-1-cells; type: cell-based; conditions: 20 μM [14C]-arachidonic acid, 20 μM calcium ionophore A 23 187, 10 minutes
T1 construct: endogenous in cells; host or cells: RBL-1 cells (rat basophilic leukemia)
T1 sequence (P12527 1-673): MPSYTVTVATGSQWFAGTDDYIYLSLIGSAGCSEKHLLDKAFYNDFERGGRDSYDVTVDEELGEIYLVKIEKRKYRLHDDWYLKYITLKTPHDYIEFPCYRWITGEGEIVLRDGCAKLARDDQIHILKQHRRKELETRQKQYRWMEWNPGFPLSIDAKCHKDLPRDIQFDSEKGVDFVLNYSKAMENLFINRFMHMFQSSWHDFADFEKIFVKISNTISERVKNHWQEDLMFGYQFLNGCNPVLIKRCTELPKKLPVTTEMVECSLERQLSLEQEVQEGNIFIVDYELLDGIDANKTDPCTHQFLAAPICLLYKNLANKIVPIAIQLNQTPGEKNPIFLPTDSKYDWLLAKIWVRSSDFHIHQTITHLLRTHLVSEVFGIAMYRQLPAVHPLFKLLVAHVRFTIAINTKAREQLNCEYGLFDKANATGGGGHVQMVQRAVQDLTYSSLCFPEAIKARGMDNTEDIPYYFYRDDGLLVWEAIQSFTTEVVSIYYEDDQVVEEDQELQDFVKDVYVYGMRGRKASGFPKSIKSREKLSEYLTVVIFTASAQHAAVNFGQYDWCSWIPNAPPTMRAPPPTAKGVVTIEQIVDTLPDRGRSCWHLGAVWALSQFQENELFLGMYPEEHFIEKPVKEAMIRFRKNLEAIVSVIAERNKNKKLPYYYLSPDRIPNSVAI
Protocol: To determine the inhibition of 5-lipoxygenase, rat basophilic leukemia cells (RBL-1-cells) were cultured in vitro, harvested by centrifugation, washed with 50 mM potassium phosphate buffer of pH 7.4, and then suspended in this buffer at 1×10^7 cells/ml. Indomethacin (10 μM) and calcium chloride (2 mM) were added to 1 ml portions of this suspension, and then the mixture was incubated either in the presence of a compound according to the invention in a concentration range of from 0,1 μM to 100 μM or in the presence of a solvent (ethanol and/or dimethyl sulfoxide) for 3 minutes and thereafter with 20 μM of [^14 C]-arachidonic acid and 20 μM of calcium ionophore A 23 187 for 10 minutes. The reaction was stopped by adding 20 μl of glacial acetic acid, and then the mixture was extracted with ethyl acetate to isolate the metabolites of arachidonic acid formed by the enzymatic action of 5-lipoxygenase. These were separated by thin layer chromatography using a solvent mixture known to be suitable for lipoxygenase products [c.f. Jakschik et al., Biochem. Biophys. Res. Commun. 102, 624 (1981)].
The distribution of radioactivity among the different metabolites of arachidonic acid was measured using a TLC Linear Analyzer. By correlating the percentage amounts of the products formed under the action of 5-lipoxygenase (5HETE, isomers of LTB4) in the absence as well as in the presence of different concentrations of compounds according to the invention, the IC50 -values, i.e. the concentrations which cause a 50% inhibition of 5-lipoxygenase, were determined graphically from semilogarithmic plots.

[2] = system: 5-lipoxygenase; test: Inhibition of 5-lipoxygenase in Rat Blood After Oral Administration (ex vivo iLTB4-formation); conditions: 21.5 mg/kg oral, male Wistar rats, one hour after administration
Protocol: The bioavailability of the compounds of formula I as 5-lipoxygenase inhibitors was characterized by means of an ex vivo biochemical assay method described by Tateson et al. in Brit. J. Pharmacol. 94, 528 (1988): A compound of formula I was orally administered to male rats (Wistar strain) at a dose of 21.5 mg/kg. After lethal CO2 -narcosis one hour after administration, the rats were bled by heart puncture with added heparin as an anticoagulant. Aliquots of the whole blood were incubated at 37° C. for 30 minutes in a water bath with calcium ionophore A 23 187 at an end concentration of 15 μg/ml. At the end of the incubation, the samples were centrifuged, and the concentration of the immunoreactive LTB4 (iLTB4) in aliquots of cell-free plasma was determined by radioimmunoassay (3H-LTB4 -RIA, Amersham). To enable calculation of the inhibition in percent of ex vivo iLTB4 -formation in whole rat blood treated with a compound according to the invention, rats orally treated with an appropriate vehicle solution were included in all experiments, and aliquots of their blood were run in parallel and were processed in the same way as described. The average iLTB4 -content of the plasma of the vehicletreated rats served as a 100% value. The activity in percent of the ex vivo iLTB4 -formation after oral administration of a compound according to the invention was calculated by dividing the average value of the iLTB4 -contents in ng iLTB4 /ml of the group treated with a compound according to the invention by the average value of the iLTB4 -contents in ng iLTB4 /ml of the vehicle treated group and subsequent multiplication by a factor of 100. The respective inhibition in percent was calculated by subtracting the activity in percent from 100.

CC(=O)N(O)Cc1ccc(C(O)C#Cc2ccccc2)cc1 (racemic) [Example 1, N-Hydroxy-N-[4-[1-hydroxy-3-phenyl-prop-2-yn-1-yl]benzyl]acetamide]
IC50 [1]: 5 µM | Inhibition [%] of ex vivo iLTB4-formation [2]: 93%
